Patent US11471478B2, “Use of cyclodextrins in diseases and disorders involving phospholipid dysregulation” (priority 2017, dated 2022)
Marks after values point to notes of the source that are not given here.

How the values were obtained:
[1] = system: MDA-MB 231 and MCF-7 human breast epithelial cell lines; assay: Wound healing / gap closure migration assay; format: cell-based; settings: for inhibition of migration, 1 mM HP-α-CD versus 2 mM HP-β-CD: MDA-MB-231 and MCF-7
Description: Published results have shown that β-CD inhibits human MDA-MB 231 cell migration (Guerra F S, Sampaio LdS, et al. (2016) Translational Medicine Communications 1:3). This inhibition was attributed to the ability of β-CD to “deplete cholesterol”. β-CD, however, depletes also phospholipids. […] Cells were cultured in 24-well culture plates (Cytoselect CBA-120, 0.9 mm wound healing/gap closure migration assay) for 24 h with wound healing insert in place. Cells were then treated for 2 h with HP-β-CD, HP-α-CD, or control. Protocol: Warm up the 24-well plate (CBA-120, Cell BioLabs Inc.) with 0.9 mm CytoSelect Wound Healing Inserts at room temperature for 10 min. Using sterile forceps, orient the desired number of inserts in the plate wells with their “wound field” aligned in the same direction. […] Add 500 μL of cell suspension to each well by carefully inserting the pipette tip through the open end at the top of the insert. For optimal cell dispersion, add 250 μL of cell suspension to either side of the open ends at the top of the insert. Incubate cells in a cell culture incubator for 12-24 hours. Carefully remove the insert from the well to begin the wound healing assay. Use sterile forceps to grab and lift the insert slowly from the plate well. Slowly aspirate and discard the media from the wells. Wash wells with media to remove dead cells and debris. Finally, add media to wells to keep cells hydrated. Repeat wash if wells still have debris or unattached cells. When washing is complete, add media with FBS and/or compounds to continue cell culture and wound healing process. Agents that inhibit or stimulate cell migration can be added directly to the wells. Incubate cells in a cell culture incubator (2 hours) and then wash cells with PBS and then add fresh media without compounds. Incubate 12-24 hours before wash and fixing. Remove the fixation solution and add 400 μL of Cell Stain Solution to each well. Allow the stain to incubate with the cells for 15 minutes at room temperature. Aspirate and discard the solution. Carefully wash each stained well 3× with deionized water. Discard washes and allow cells to dry at room temperature. Cells that migrated into the wounded area or protruded from the border of the wound were visualized and photographed under an inverted microscope. Determine the surface area of the defined wound area: Total Surface Area=0.9 mm×length. Determine the surface area of the migrated cells into the wound area: Migrated Cell Surface Area=length of cell migration (mm)×2× length. Percent Closure (%)=Migrated Cell Surface Area/Total Surface Area×100 (see FIG. 36)

[2] = system: MDA-MB-231 breast cancer cells; assay: NSG mice injected with human MDA-MB-231 breast cancer cells; format: in vivo
Description: NSG mice (NOD.Cg-Prkdcscid Il2rgtm1Wjl/SzJ, strain #005557 (10 wk old) were obtained from Jackson Laboratories (Bar Harbor, Me.), housed in isolated quarters, and fed with autoclaved water and food.
An MDA-MB-231 cell line was obtained (ATCC) and kept frozen in liquid nitrogen. Upon start of culture, cells were thawed (1.5 min in 37° C. water) and transferred to DMEM/F-12 supplemented with 5% FBS, 2 mM L-glutamine, 1 mM sodium pyruvate, and 0.02 mM non-essential amino acids. Cells were grown to several millions in 60 mm dishes at 70-80% confluence. Before injection, cells were briefly rinsed twice in PBS followed by Versene (EDTA, Invitrogen) and placed on ice with excess phosphate-buffered saline and phenol red-free matrigel basement membrane extract to a concentration of about 15 mg/mL matrigel. 100 μL cell mixture (20,000 cells or saline only) were injected into the lactiferous duct of the 3rd or 4th mammary glands under brief isofluorane anesthesia. Groups of 15 mice each were injected IP with 800 mg/kg of HP-α-CD, HP-β-CD per week (over four days, Mon, Tue, Thu, Fri), or saline (control) for six weeks. Size of the primary tumor was measured weekly.
Breast tissue were palpated and measured twice a week with a micro-metric analytical device scaled to 1 mm precision. Mice were weighed weekly on a digital scale (0.1 g precision).
At the end of the study period, mice were anaesthetized with isofluorane with 1× phosphate-buffered saline (PBS) and subsequently with 4% formaldehyde in PBS. Tissue from lung and liver were removed and fixated in formalin for microscopic examination. Metastases were visualized and counted by tissue embedding in paraffin and sectioning with immunohistochemistry and histological stain (H&E) and immunostained with anti-HLA antibody. After blocking for 1 h with BSA (5%, frac V), the anti-HLA was incubated at 4° C. overnight, washed for 1 h in PBS, then incubated with biotinylated anti-mouse IgG for 1 h at room temperature. After washing with PBS, metastases were detected on the slide using Envision (Dako).
After blood collection, whole blood samples were centrifuged (at 10,000 m/s^2 for 15 min and then at 100,000 m/s^2 for 10 min), and plasma was isolated. The samples were stored at −80° C. until analysis.
Prior to analysis (30 min), samples and assay reagents were equilibrated to room temperature. The samples were run at a 1:4 dilution and quantified in duplicate using a multi-plex mouse panel for quantification of IL-1β, IL-18, IL-6, IL-8, IL-17A, and GM-CSF (Bio-Plex Pro assays, Bio-Rad Laboratories) on a Luminex Bio-Plex 200 System (Bio-Rad Laboratories).

HTT mice = HTT mice (R6/2), bodyweight; format: in vivo; settings: 8 wk old HTT mice, over 5 wk
Description: (§1) ALS mice SOD1 G93A strain (B6SJL-Tg(SOD1*G93A)1Gur/J strain #002726, 10 wk old, and HTT mice (B6CBA-Tg(HDexon1)62Gpb/33; strain #006494 HTT: R6/2, 8 wk old), were obtained from Jackson Laboratories (Bar Harbor, Me.), housed in standard housing with controlled ambient conditions and provided with water and food at libitum.

SOD1 mice = assay: ALS mice SOD1 G93A, bodyweight; format: in vivo; settings: untreated mice began to lose bodyweight after 21 days
Description: as §1

[3] = Randomized n-of-1 human PK/PD study: FPLC of morning urine after oral HP-α-CD preparations; settings: in vivo
Description: Urine samples (5-10 mL) were pipetted into culture tubes and then frozen for 30 min and samples were then lyophilized for 48-72 h, sealed and stored at −80° C. Phospholipids were extracted from urine samples after reconstitution, with chloroform (CHCl3) and methanol (3:1), and filtered through glass wool. The eluent was washed with 1 M KCl with 0.01% sodium azide. The wash was centrifuged at 3000 g for 30 min and CHCl3 layer transferred to fresh tube and evaporated at 60° C. under nitrogen. Phospholipid extracts and standards were digested in 10 M H2SO4 with 0.16 Ca(NO3)2 and 30% H2O2 and heated for 25 min at 180° C. […] These were vortexed and heated at 35° C. for 30 min. All samples were analyzed in triplicate.
This was coupled to a Beckman Ultra SI column using an isocratic elution profile along a mobile phase of acetonitrile-methanol-phosphoric acid solvent (100:10:1.8) at a flow rate of 1.0 mL/min at RT. The lyophilized samples were resuspended in a hexane-propanol-phenolphthalene mix (3:1:0.1) before injection.
The standard curves (FIG. 43) were generated using DiPalmitoyl-PC in the range of 0.65-32 μM phosphate equivalence. Percentage efficiency of isolation was determined through a comparison of the extraction recovery of total phosphate from normal urine spiked with known amount of synthetic PL with a parallel PL sample digested and assayed without extraction.

erythrocytes = settings: read-out: hemolytic IC50; cited from earlier work
SwN2a cells = settings: cited from earlier work
Npc1−/− mice = settings: mouse, in vivo; cited from earlier work
whole blood = settings: cited from earlier work
BBB = settings: cited from earlier work
[4] = system: heterogeneous human epithelial colorectal adenocarcinoma (Caco-2) cells; settings: cited from earlier work
[5] = i.v.; cited from earlier work
rats = settings: rat, in vivo, iv; cited from earlier work
mice/rats = settings: in vivo; cited from earlier work
keratinocytes = settings: cited from earlier work
[6] = system: fibroblasts of lysosomal storage diseases; settings: about 6 mM α-CD, about 8 mM HP-β-CD; cited from earlier work
[7] = system: HeLa cells transfected with α-synuclein; settings: 20 mM for 1 hr; cited from earlier work
[8] = molecular target: T1, breast cancer resistance protein (BCRP) (Homo sapiens, UniProt Q9UNQ0); settings: cited from earlier work
T1 sequence (Q9UNQ0 1-655): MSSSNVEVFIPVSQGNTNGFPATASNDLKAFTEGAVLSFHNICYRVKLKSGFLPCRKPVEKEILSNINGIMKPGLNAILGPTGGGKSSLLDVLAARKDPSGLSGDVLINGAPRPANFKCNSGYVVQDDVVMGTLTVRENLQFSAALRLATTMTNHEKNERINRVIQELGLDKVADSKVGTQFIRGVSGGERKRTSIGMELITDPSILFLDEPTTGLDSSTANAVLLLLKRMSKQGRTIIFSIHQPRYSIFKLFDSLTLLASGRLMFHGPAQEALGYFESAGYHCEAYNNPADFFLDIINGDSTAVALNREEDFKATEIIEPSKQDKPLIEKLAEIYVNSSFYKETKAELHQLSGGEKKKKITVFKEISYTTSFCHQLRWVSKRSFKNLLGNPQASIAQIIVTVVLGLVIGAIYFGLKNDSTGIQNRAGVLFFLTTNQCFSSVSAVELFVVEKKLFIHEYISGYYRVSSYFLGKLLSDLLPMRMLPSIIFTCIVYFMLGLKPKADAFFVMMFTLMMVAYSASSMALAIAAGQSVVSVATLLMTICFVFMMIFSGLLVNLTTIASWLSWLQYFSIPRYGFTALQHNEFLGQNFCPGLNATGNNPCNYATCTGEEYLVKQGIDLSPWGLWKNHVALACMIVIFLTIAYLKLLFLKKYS

[9] = IP 800 mg/kg per week for six weeks
[10] = u-statistics for multivariate data

Q: For “2-hydroxypropyl-alpha-cyclodextrin [HP-α-CD]”, which “cell migration / wound closure, concentration dependence” value ([1]; 2 h treatment, MDA-MB 231 and MCF-7) is on record?
A: migration decreased with higher concentration

Q: What about the “effect on migration, HP-α-CD versus HP-β-CD” value ([1]; MDA-MB 231 and MCF-7) of the same compound?
A: stronger effect on migration than HP-β-CD

Q: And the “effect on migration, HP-α-CD versus HP-β-CD” value ([1]; MDA-MB 231 and MCF-7, listed as HPαCD)?
A: twice as effective as HP-β-CD

Q: What about the “inhibition of migration, 1 mM HP-α-CD versus 2 mM HP-β-CD” value [1] of the same compound?
A: superior to inhibition at 2 mM HP-β-CD

Q: And the “inhibition of migration, 1 mM HP-α-CD versus 2 mM HP-β-CD” value ([1]; listed as HPαCD)?
A: more effective than 2 mM HPβCD

Q: What about the “Tumor volume, median” value [2, 9] of the same compound?
A: 356 mm3

Q: What about the “effect on tumor volume” value [2, 9] of the same compound?
A: more effective than HP-β-CD

Q: And the “plasma cytokines (IL-1β, IL-18, IL-6, IL-8, IL-17A, GM-CSF) versus Vehicle” value ([2]; conventional 0.05 level)?
A: not significant only in IL-6

Q: And the “mice that did not develop lung metastases” value ([2]; groups of 15 mice)?
A: 5 mice

Q: And the mice who died ([2]; groups of 15 mice)?
A: one

Q: And the “comprehensive analysis of all six plasma cytokine markers” value [2, 10]?
A: more effective than HP-β-CD

Q: What about the “lung and liver metastases overall” value [2, 10] of the same compound?
A: more effective

Q: And the decline in bodyweight (HTT mice)?
A: reduced decline in bodyweight

Q: And the bodyweight growth (SOD1 mice)?
A: continued to grow for at least two more weeks

Q: What about the “lysophospholipids in urine (fractions 9 and 10, LPC)” value [3] of the same compound?
A: higher than in all other groups

Q: And the IC50 (erythrocytes)?
A: > 100 mM

Q: What about the “level of membrane cholesterol” value (SwN2a cells) of the same compound?
A: reduced

Q: And the “levels of Aβ42” value (SwN2a cells)?
A: dramatically lowered

Q: What about the cholesterol accumulation (Npc1−/− mice) of the same compound?
A: reduces cholesterol accumulation, albeit not as effectively as HP-β-CD

Q: And the “whole blood TD50” value (whole blood)?
A: 360 mM/L

Q: What about the BBB breakdown (BBB) of the same compound?
A: 2.5 mM

Q: What about the “toxicity on the BBB model” value (BBB) of the same compound?
A: similarly safe

Q: And the cytotoxicity [4]?
A: less cytotoxic than α-CD

Q: Which “transported through the BBB” value (BBB; after 2 h of incubation, in vitro) does the source give for `CN1CCCC1c1cccnc1` (stereo not shown) [nicotine] here?
A: 96%

Q: Which “half-life (t1/2) after i.v. in rats” value [5] does the source give for `OC[C@H]1O[C@@H]2O[C@H]3[C@H](O)[C@@H](O)[C@@H](O[C@H]4[C@H](O)[C@@H](O)[C@@H](O[C@H]5[C@H](O)[C@@H](O)[C@@H](O[C@H]6[C@H](O)[C@@H](O)[C@@H](O[C@H]7[C@H](O)[C@@H](O)[C@@H](O[C@H]8[C@H](O)[C@@H](O)[C@@H](O[C@H]1[C@H](O)[C@H]2O)O[C@@H]8CO)O[C@@H]7CO)O[C@@H]6CO)O[C@@H]5CO)O[C@@H]4CO)O[C@@H]3CO` [β-CD, beta-cyclodextrin, reference compound] here?
A: 20 min

Q: And the “whole blood TD50” value (whole blood)?
A: 3.6 mM/L

Q: And the “i.v. toxicity, 1 g/kg daily” value (rats)?
A: all died ≤ 4 d

Q: What about the “LD50 i.v./i.p. in mice/rats” value (mice/rats) of the same compound?
A: 0.8/1.0 ^4) g/kg

Q: What about the “Transport across BBB” value (BBB; 2 h, 1 mM) of the same compound?
A: 26.7 (1 mM) %

Q: What about the “toxicity on the BBB model” value (BBB) of the same compound?
A: similarly safe

Q: And the “caspase-dependent apoptotic cell death” value (keratinocytes)?
A: induces caspase-dependent apoptotic cell death

Q: With methyl-β-cyclodextrin [M-β-CD] as the compound, how does the “reduction of lysosomal storage” value [6] read?
A: most effective cyclodextrin

Q: And the “co-location of α-synuclein with the cell membrane” value [7]?
A: dramatically reduced

Q: What about the “decrease in activity of BCRP” value [8] of the same compound?
A: 40%
